Test results as given in US6369069B1 (Aventis Pharma Deutschland GmbH, priority 1998, dated 2002).

Test system: Na^+-dependent Cl^−/HCO3^− exchanger (NCBE)
Assay: Inhibition of the Na+-dependent Cl−/HCO3− exchanger (NCBE) in human endothelial cells (pHi recovery, BCECF fluorescence, FLIPR)
Type: cell-based
Conditions: 10 μM
Outline: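 ECV-304 cells loaded with 5 μM BCECF-AM in NH4Cl-containing saline, then placed in Na+/HCO3−-free buffer to acidify. pHi recovery started with Na+/HCO3− buffer (50 μM HOE 642) plus compound at various concentrations. Fluorescence kinetics over 2 min at 35 °C, normalised to 100% and 0% (HCO3−-free) controls.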

| Structure (SMILES) | Residual activity % of the NCBE at 10 μM [%] |
| --- | --- |
| N#CNS(=O)(=O)c1ccccc1-c1ccc(CN(CCO)C(=O)C2CCCCC2)cc1 [Example 14] | 88.7 |
| COc1ccc(CC(=O)N(Cc2ccc(-c3ccccc3S(=O)(=O)NC#N)cc2)Cc2ccccc2Cl)cc1 [Example 174] | 50.2 |
| N#CNS(=O)(=O)c1ccccc1-c1ccc(CN(Cc2ccccc2)C(=O)CCCCc2ccccc2)cc1 [Example 244] | 60.4 |
| COc1ccccc1CN(Cc1ccc(-c2ccccc2S(=O)(=O)NC#N)cc1)C(=O)c1ccccc1F [Example 94] | 87.7 |
| COCCC(=O)N(CC=C(C)CCC=C(C)C)Cc1ccc(-c2ccccc2S(=O)(=O)NC#N)cc1 [Example 323] | 23.6 |
| N#CNS(=O)(=O)c1ccccc1-c1ccc(CN(Cc2ccc(C(F)(F)F)cc2)C(=O)Cc2ccccc2)cc1 [Example 129] | 47.4 |
| COCCC(=O)N(Cc1ccc(-c2ccccc2S(=O)(=O)NC#N)cc1)Cc1ccccc1C [Example 322] | 66.3 |
| N#CNS(=O)(=O)c1ccccc1-c1ccc(CN(C(=O)C(=O)c2cccs2)C2CC2)cc1 [Example 197] | 79.9 |
| N#CNS(=O)(=O)c1ccccc1-c1ccc(CN(Cc2cccc3ccccc23)C(=O)CCc2cccs2)cc1 [Example 289] | 39.2 |
| COc1cccc(CC(=O)N(Cc2ccccc2)Cc2ccc(-c3ccccc3S(=O)(=O)NC#N)cc2)c1 [Example 19] | 25.9 |
| C=CCOC(=O)N(Cc1ccc(Cl)cc1)Cc1ccc(-c2ccccc2S(=O)(=O)NC#N)cc1 [Example 46] | 52.2 |
| N#CNS(=O)(=O)c1ccccc1-c1ccc(CN(CC2CCCO2)C(=O)CC2CCCCC2)cc1 (stereo not shown) [Example 358] | 55.5 |
| N#CNS(=O)(=O)c1ccccc1-c1ccc(CN(Cc2ccc(Cl)c(Cl)c2)C(=O)Cc2cccs2)cc1 [Example 259] | 40.1 |
| COCCN(Cc1ccc(-c2ccccc2S(=O)(=O)NC#N)cc1)C(=O)Cc1csc2ccccc12 [Example 211] | 50.6 |
| C[C@H](c1ccccc1)N(Cc1ccc(-c2ccccc2S(=O)(=O)NC#N)cc1)C(=O)C(c1ccccc1)c1ccccc1 [Example 118] | 95.3 |
| COc1ccccc1C(=O)N(CC=C(C)CCC=C(C)C)Cc1ccc(-c2ccccc2S(=O)(=O)NC#N)cc1 [Example 333] | 22.3 |
| Cc1ccccc1CN(Cc1ccc(-c2ccccc2S(=O)(=O)NC#N)cc1)C(=O)Cc1cccs1 [Example 312] | 12.5 |
| CC(C)NC(=O)N(Cc1ccccc1)Cc1ccc(-c2ccccc2S(=O)(=O)NC#N)cc1 [Example 298] | 74.7 |
| N#CNS(=O)(=O)c1ccccc1-c1ccc(CN(Cc2ccccc2)C(=O)C(=O)c2ccco2)cc1 [Example 245] | 73.0 |
| N#CNS(=O)(=O)c1ccccc1-c1ccc(CN(Cc2cccc(Cl)c2)C(=O)Cc2ccccc2Br)cc1 [Example 278] | 31.2 |
| N#CNS(=O)(=O)c1ccccc1-c1ccc(CN(CCc2cccs2)C(=O)Cc2ccc(Cl)cc2)cc1 [Example 150] | 44.7 |
| N#CNS(=O)(=O)c1ccccc1-c1ccc(CN(C(=O)Cc2cccs2)C(C(=O)O)c2ccccc2)cc1 (stereo not shown) [Example 282] | 89.0 |
| N#CNS(=O)(=O)c1ccccc1-c1ccc(CN(Cc2ccccc2Cl)C(=O)c2cccs2)cc1 [Example 81] | 36.0 |
| N#CNS(=O)(=O)c1ccccc1-c1ccc(CN(Cc2nc3ccccc3[nH]2)C(=O)Cc2csc3ccccc23)cc1 [Example 216] | 62.2 |
| CC(=O)N(Cc1ccc(Cl)cc1)Cc1ccc(-c2ccccc2S(=O)(=O)NC#N)cc1 [Example 62] | 94.5 |
| N#CNS(=O)(=O)c1ccccc1-c1ccc(CN(Cc2ccc(Cl)cc2)C(=O)C2CCCCC2)cc1 [Example 16] | 56.4 |

| Structure (SMILES) | Residual activity % of the NCBE at 10 μM [%] |
| --- | --- |
| N#CNS(=O)(=O)c1ccccc1-c1ccc(CN(Cc2ccccn2)C(=O)Cc2ccsc2)cc1 [Example 228] | 94.8 |
| N#CNS(=O)(=O)c1ccccc1-c1ccc(CN(CC2CC2)C(=O)COc2ccccc2)cc1 [Example 168] | 96.4 |
| N#CNS(=O)(=O)c1ccccc1-c1ccc(CN(CCCc2ccccc2)C(=O)Cc2c[nH]c3ccccc23)cc1 [Example 202] | 38.5 |
| COCCN(Cc1ccc(-c2ccccc2S(=O)(=O)NC#N)cc1)C(=O)Cc1cccs1 [Example 237] | 50.3 |
| COc1ccc(CCN(Cc2ccc(-c3ccccc3S(=O)(=O)NC#N)cc2)C(=O)c2cc3ccccc3s2)cc1 [Example 80] | 66.7 |
| Cc1ccc(CN(Cc2ccc(-c3ccccc3S(=O)(=O)NC#N)cc2)C(=O)C(c2ccccc2)c2ccccc2)cc1 [Example 115] | 84.0 |
| N#CNS(=O)(=O)c1ccccc1-c1ccc(CN(Cc2ccccc2Cl)C(=O)COc2ccccc2)cc1 [Example 167] | 47.5 |
| N#CNS(=O)(=O)c1ccccc1-c1ccc(CN(Cc2cccc(Cl)c2)C(=O)Cc2ccc(O)cc2)cc1 [Example 285] | 58.8 |
| N#CNS(=O)(=O)c1ccccc1-c1ccc(CN(Cc2ccc3c(c2)OCO3)C(=O)Cc2ccccc2)cc1 [Example 127] | 61.7 |
| CN(Cc1ccc(-c2ccccc2S(=O)(=O)NC#N)cc1)C(=O)CCCCc1cccs1 [Example 222] | 76.7 |
| N#CNS(=O)(=O)c1ccccc1-c1ccc(CN(C(=O)CC2CCCCC2)C2CCc3ccccc32)cc1 (stereo not shown) [Example 354] | 37.2 |
| N#CNS(=O)(=O)c1ccccc1-c1ccc(CN(C(=O)Cc2c[nH]c3ccccc23)C2CC2)cc1 [Example 205] | 41.7 |
| N#CNS(=O)(=O)c1ccccc1-c1ccc(CN(Cc2cccs2)C(=O)NCc2ccccc2)cc1 [Example 295] | 8.0 |
| N#CNS(=O)(=O)c1ccccc1-c1ccc(CN(CCCc2ccccc2)C(=O)CCCc2cccs2)cc1 [Example 186] | 9.7 |
| CC(C)(C)CC(=O)N(Cc1ccc(-c2ccccc2S(=O)(=O)NC#N)cc1)Cc1ccco1 [Example 158] | 57.9 |
| COc1ccc(CN(Cc2ccc(-c3ccccc3S(=O)(=O)NC#N)cc2)C(=O)C2CCCCC2)cc1 [Example 15] | 67.6 |
| COCCC(=O)N(Cc1ccc(-c2ccccc2S(=O)(=O)NC#N)cc1)CC1CCCO1 (stereo not shown) [Example 328] | 87.0 |
| Cc1ccccc1CN(Cc1ccc(-c2ccccc2S(=O)(=O)NC#N)cc1)C(=O)CCOc1ccccc1 [Example 342] | 85.3 |
| COCCC(=O)N(Cc1ccc(-c2ccccc2S(=O)(=O)NC#N)cc1)Cc1ccc2ccccc2c1 [Example 320] | 38.8 |
| N#CNS(=O)(=O)c1ccccc1-c1ccc(CN(Cc2ccc(C(F)(F)F)cc2)C(=O)c2ccccc2Cl)cc1 [Example 109] | 75.4 |
| COc1ccccc1CN(Cc1ccc(-c2ccccc2S(=O)(=O)NC#N)cc1)C(=O)c1cc2ccccc2s1 [Example 74] | 54.7 |
| N#CNS(=O)(=O)c1ccccc1-c1ccc(CN(Cc2ccccc2)C(=O)NC2CCCCC2)cc1 [Example 300] | 29.4 |
| COc1ccc(CCN(Cc2ccc(-c3ccccc3S(=O)(=O)NC#N)cc2)C(=O)C(c2ccccc2)c2ccccc2)cc1 [Example 120] | 81.3 |
| N#CNS(=O)(=O)c1ccccc1-c1ccc(CN(CCc2cccs2)C(=O)Cc2cccs2)cc1 [Example 141] | 71.1 |
| N#CNS(=O)(=O)c1ccccc1-c1ccc(CN(Cc2cccs2)C(=O)CCC2CCCCC2)cc1 [Example 255] | 61.0 |

Same assay, conditions: 10 μM compound; human endothelial cells (ECV-304); related to 100% and 0% pHi recovery controls

| Structure (SMILES) | Residual activity of the NCBE at 10 μM [%] |
| --- | --- |
| CS(=O)(=O)c1cc(-c2ccccc2S(=O)(=O)NC#N)ccc1CN(Cc1ccccc1)S(=O)(=O)c1cccs1 [Example 557, 4′-{[Benzyl(thiophene-2-sulfonyl)amino]methyl}-3′-methylsulfonylbiphenyl-2-sulfonylcyanamide] | 14 |

Same assay, conditions: compound at 10 μM; R(3) to R(7) hydrogen series

| Structure (SMILES) | Residual activity % of the NCBE at 10 μM [%] |
| --- | --- |
| CC(C(=O)N(Cc1ccc(-c2ccccc2S(=O)(=O)NC#N)cc1)CC1CC(C(=O)N2CCCC2)=NO1)c1cccs1 (stereo not shown) [Example 397] | 44.0 |
| N#CNS(=O)(=O)c1ccccc1-c1ccc(CN(CC2CCCO2)C(=O)CC2CCCC2)cc1 (stereo not shown) [Example 368] | 51.0 |

Same assay, conditions: compound at 10 μM; sub-table with R7 substituent

| Structure (SMILES) | Residual activity % of the NCBE at 10 μM [%] |
| --- | --- |
| Cc1ccc(-c2ccc(CN(CCc3ccccc3)C(=O)C(C)c3cccs3)cc2)c(S(=O)(=O)NC#N)c1 (stereo not shown) [Example 526] | 64.9 |
| Cc1ccc(-c2ccc(CN(Cc3ccccc3Cl)C(=O)Cc3ccc(Cl)cc3)cc2)c(S(=O)(=O)NC#N)c1 [Example 532] | 71.0 |
| Cc1ccc(-c2ccc(CN(Cc3cccs3)C(=O)Cc3ccc(Cl)cc3)cc2)c(S(=O)(=O)NC#N)c1 [Example 533] | 75.5 |
| Cc1ccc(-c2ccc(CN(Cc3cccs3)C(=O)Cc3cccs3)cc2)c(S(=O)(=O)NC#N)c1 [Example 517] | 86.2 |
| Cc1ccc(-c2ccc(CN(Cc3ccccc3)C(=O)Cc3cccs3)cc2)c(S(=O)(=O)NC#N)c1 [Example 513] | 88.6 |
| Cc1ccc(-c2ccc(CN(CCc3ccccc3)C(=O)Cc3ccc(Cl)cc3)cc2)c(S(=O)(=O)NC#N)c1 [Example 534] | 80.0 |
| Cc1ccc(-c2ccc(CN(CCc3ccccc3)C(=O)Cc3ccsc3)cc2)c(S(=O)(=O)NC#N)c1 [Example 542] | 67.4 |
